Assay results taken from patent US20240009256A1, “USE OF PROBIOTIC BACTERIUM-DERIVED EXTRACELLULAR MICRO- AND/OR NANOPARTICLES FOR THE TREATMENT OF DISEASE” (University of Louisville Research Foundation, Inc., priority 2020, published 2024).

Experiments:
EGFR = biological target: T1, EGFR (Mus musculus, UniProt Q01279); assay: LDNPs-mediated EGFR activation in LPS-treated Raw264.7 cells with AG1478; type: cell-based; settings: AG1478 150 nM
T1 construct: endogenous in cells; host or cells: Raw264.7
Protocol: (§1) Real-time quantitative PCR Total mRNA was extracted from mouse liver and intestine tissues using Trizol reagent (Life Technologies, Carlsbad, California, United States of America) according to the manufacturer's instruction and reverse-transcribed using cDNA Supermix (QuantaBio, Beverly, Massachusetts, United States of America). 18S and Gapdh were used as internal controls. Real-time qPCR was performed on an ABI 7300 fast real-time PCR thermocycler, where SYBR green PCR Master Mix (Applied Biosystems, Foster City, California, United States of America) was used. The relative gene expression was determined by the ΔΔCT method.
Raw264.7 cells were pretreated with LDNPs (0.2 μg/ml) or the EGFR inhibitor AG1478 (150 nM) for 20 hours and then treated with LPS for 4 hours to induce inflammation response as depicted in the top panel of the FIG. 13A. The bottom panel of FIG. 13A is a representative western blot of phosphorylated EGFR (P-EGFR Tyr 1068), Total-EGFR, PI3K, phosphorylated Akt (P-Akt), total-Akt, phosphorylated NF-κB (P-NF-κB), and β-actin showing that expression of several of these proteins were modulated by LDNP treatment.

[1] = test system: lamina propria lymphocytes (LPLs); assay: AhR signaling in lamina propria lymphocytes; type: cell-based, mouse; settings: AhR inhibitor 10 μM
Caco-2 cells = assay: Tight junction, Cyp1a1 and Nrf2 expression in Caco-2 cells; type: cell-based, human
Protocol: as §1
Western Blotting. Protein was extracted from frozen intestine tissues. Western blotting was performed as described in (Shao et al. (2018) Intestinal HIF-1α deletion exacerbates alcoholic liver disease by inducing intestinal dysbiosis and barrier dysfunction. Journal of Hepatology 69:886-895). Antibodies used for western blotting for proteins ZO-1, Occludin, and Claudin-1 were from Cell Signaling (Danvers, Massachusetts, United States of America). Nrf-2, β-actin and Histone H3 antibodies were purchased from Abcam (Cambridge, Massachusetts, United States of America). For western blotting in Caco-2 cell derived NPs and LDNPs, CD 63 antibody from System Bioscience (Palo Alto, California, United States of America) was used.
Cell culture. Mouse macrophages RAW 264.7 and the human intestinal epithelial cells Caco-2 were maintained in DMEM-high glucose and EMEM-high glucose (Corning; 10-009CV) respectively. The medium was supplemented with 10% fetal bovine serum, 1X penicillin-streptomycin solution (100U/ml penicillin, and 100 μg/ml streptomycin; Sigma Aldrich) in a humidified atmosphere (5% CO2, 95% air, 37° C.). Peritoneal macrophages and bone marrow-derived macrophages (BMDM) were isolated from mice as described in (Ying et al. (2013) Investigation of Macrophage Polarization Using Bone Marrow Derived Macrophages. Journal of Visualized Experiments 76:50323.). Isolated BMDM were then cultured in modified DMEM medium with macrophage colony-stimulating factor (M-CSF), which is a cytokine that directs cell differentiation. Cells were utilized for experimentation at 70-80% confluence. RAW264.7, peritoneal macrophages (PMs) and bone marrow-derived macrophages (BMDMs) were pretreated with LDNPs (0.2 μg/ml for 20 hours) and then treated with E. coli-derived lipopolysaccharides (LPS; O55:B5; Sigma) at 100 ng/mL concentration for 4 hours. Caco-2 cells at 70-80% confluence were treated with LDNPs (0.2 μg/ml), I3A (0.1 mM), the AhR inhibitor, CH-223191 (10 μM) or Nrf2 inhibitor, ML385 (5 μM) for 24 hours. Lamina propria lymphocytes (LPLs) were treated with LDNPs (0.2 μg/ml), I3A (0.1 mM) or the AhR inhibitor, CH223191 (10 μM) for 24 hours.
Measurement of Cvp1A1 enzyme activity in vitro. Caco-2 cells (50,000 cells/well) were plated in a 48-well plate. Cells were then treated with LDNPs (0.2 μg/ml) or Indole-3-aldehyde (I3A, 0.1 mM) for 24 hours. After treatment, cells were washed to remove any residual LDNPs or I3A, then the wells were replenished with fresh medium containing Cyp1A1 substrate as per the protocol provided with a P450-GLO™ CYP1A1 Assay System brand kit (Promega Corporation, Madison, Wisconsin, United States of America) for 3 hours. After incubation, 25 μl of culture medium was removed from each well and transferred to a 96-well white opaque plate and 25 μl of luciferin detection reagent was added to initiate the luminescence reaction and plate was incubated at room temperature for 20 minutes. After incubation, luminescence was recorded using a luminometer. The data were reported as foldchange over vehicle treatment.

AhR = assay: ALD mouse model with AhR inhibitor CH223191 co-administration; type: in vivo
Protocol: Animals and treatments. C57BL/6J mice (6-8 weeks of age) from Jackson Laboratory (Bar Harbor, Maine, United States of America) were maintained at 22° C. with a 12 hour light/dark cycle and initially had free access to a normal chow diet and tap water. Mice were then fed the Lieber DeCarli Diet containing 5% alcohol (w/v) (Alcohol-fed, AF) or isocaloric maltose dextrin (Pair-fed, PF). For the AF groups, mice were initially fed the control Lieber-DeCarli liquid diet (Bio-Serve, Flemington, New Jersey, United States of America) for 5 days to acclimate to the liquid diet. […] Mice in PF group were fed isocaloric maltose dextrin in substitution for alcohol in the liquid diet. On experimental Day 10, a bolus of EtOH (5 g/kg body weight) was given to AF mice by gavage 9 hours before harvesting, while mice in PF groups received a gavage of isocaloric maltose dextrin (10d+1b model). LDNPs were administered to mice in the last 3 days by daily gavage of 200 μL of LDNPs (50 μg protein content). AhR inhibitor, CH223191 (Sigma-Aldrich, St. Louis, Missouri, United States of America) was gavaged at […] in last three days. Control mice were gavaged with an equal volume of control vehicle (PBS).
Whether the beneficial effects of LDNPs in ALD were mediated by the intestinal AhR pathway was tested by administrating the AhR inhibitor CH223191 to alcohol-fed mice. […] Importantly, the suppressive effect on hepatic fat by LDNP treatment was blunted when CH223191 was co-administered.

[2] = alcohol-fed, CH223191 co-administered
[3] = alcohol-fed, co-fed with CH223191
[4] = Caco-2, LDNPs 0.2 μg/ml, I3A 0.1 mM, 24 hours

T1 sequence (Q01279 25-1210): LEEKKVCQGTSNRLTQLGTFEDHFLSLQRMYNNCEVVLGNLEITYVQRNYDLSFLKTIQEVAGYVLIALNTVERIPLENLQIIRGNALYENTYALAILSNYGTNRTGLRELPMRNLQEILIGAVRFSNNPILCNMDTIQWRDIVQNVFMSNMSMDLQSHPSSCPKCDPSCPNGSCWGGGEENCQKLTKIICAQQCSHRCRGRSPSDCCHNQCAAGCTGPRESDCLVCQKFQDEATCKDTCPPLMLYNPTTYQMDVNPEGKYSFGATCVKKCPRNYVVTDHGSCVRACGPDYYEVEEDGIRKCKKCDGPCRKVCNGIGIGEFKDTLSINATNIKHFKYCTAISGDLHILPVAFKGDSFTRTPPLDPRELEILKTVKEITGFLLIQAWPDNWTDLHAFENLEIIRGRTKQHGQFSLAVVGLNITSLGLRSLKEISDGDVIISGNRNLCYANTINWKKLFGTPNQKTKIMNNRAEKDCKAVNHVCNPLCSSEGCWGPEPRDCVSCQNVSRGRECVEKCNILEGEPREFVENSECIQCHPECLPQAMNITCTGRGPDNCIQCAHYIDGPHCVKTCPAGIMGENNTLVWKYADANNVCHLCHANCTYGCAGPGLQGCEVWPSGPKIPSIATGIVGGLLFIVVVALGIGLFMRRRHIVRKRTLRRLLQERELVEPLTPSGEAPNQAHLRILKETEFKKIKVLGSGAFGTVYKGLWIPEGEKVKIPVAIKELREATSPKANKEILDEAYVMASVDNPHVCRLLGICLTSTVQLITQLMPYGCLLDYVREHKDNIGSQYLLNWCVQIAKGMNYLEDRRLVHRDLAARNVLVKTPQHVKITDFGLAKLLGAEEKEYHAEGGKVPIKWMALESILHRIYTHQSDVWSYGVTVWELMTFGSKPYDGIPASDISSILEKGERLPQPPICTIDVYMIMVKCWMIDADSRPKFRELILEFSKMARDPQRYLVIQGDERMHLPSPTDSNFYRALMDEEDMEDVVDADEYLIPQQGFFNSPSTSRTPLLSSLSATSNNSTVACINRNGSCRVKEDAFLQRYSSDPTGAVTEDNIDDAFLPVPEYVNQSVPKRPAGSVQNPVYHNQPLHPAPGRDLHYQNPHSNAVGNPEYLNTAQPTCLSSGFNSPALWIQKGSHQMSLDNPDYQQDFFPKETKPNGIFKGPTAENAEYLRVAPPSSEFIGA

In the case of `COc1cc2ncnc(Nc3cccc(Cl)c3)c2cc1OC` [AG1478], the “LDNP-mediated reduction of IL-1β mRNA” value (EGFR) is reported as “inhibited” and the “LDNP-mediated reduction of TNF-α mRNA” value (EGFR) is reported as “inhibited”.

`Cc1ccccc1N=Nc1ccc(NC(=O)c2ccnn2C)c(C)c1` [CH223191] was tested, and the “LDNPs-induced Cyp1a1 mRNA expression” value [1] was “completely inhibited”, the “LDNPs-induced Il22 mRNA expression” value [1] was “completely inhibited” and the “LDNPs-induced upregulation of IL-22 protein” value [1] was “completely inhibited”. For the same compound, the “LDNPs-induced Cyp1a1 mRNA expression” value ([1]; listed as CH229131) was “blocked”, the “LDNPs-induced Il22 mRNA expression” value ([1]; listed as CH229131) was “blocked” and the “I3A-induced Cyp1a1 activity” value (Caco-2 cells) was “blocked”. The “I3A-induced Cyp1a1 mRNA expression” value (Caco-2 cells) was “blocked”, the “LDNP-induced Cyp1a1 activity” value (Caco-2 cells) was “blocked” and the “LDNP-induced Cyp1a1 mRNA expression” value (Caco-2 cells) was “blocked”. For the same compound, the “LDNP-induced Nrf2 mRNA expression” value (Caco-2 cells) was “blocked”, the “LDNP-induced Nrf2 protein expression” value (Caco-2 cells) was “blocked” and the “ileum Nqo1 mRNA expression” value (AhR; AF mice, agent alone) was “reduced”. For the same compound, the “ileum Nrf2 mRNA expression” value (AhR; AF mice, agent alone) was “reduced”, the “LDNP-induced increase of IL-22 protein” value (AhR; [2]) was “completely inhibited” and the “LDNP-induced increase of Il22 mRNA” value (AhR; [2]) was “completely inhibited”. For the same compound, the “suppressive effect of LDNP treatment on hepatic fat” value (AhR; [2]) was “blunted”, the “upregulation of Reg3g by LDNPs” value (AhR; [2]) was “blocked” and the “ileum Cyp1a1 mRNA expression” value (AhR; alcohol-fed, LDNPs gavaged with the inhibitor) was “no change”. The IL-22 protein expression (AhR; alcohol-fed, agent alone) was “reduced”, the hepatic bacteria load (AhR; alcohol-fed, agent alone) was “significantly increased” and the hepatic fat accumulation (AhR; alcohol-fed, agent alone) was “significantly increased”. For the same compound, the “ileum Cyp1a1 mRNA expression” value (AhR; alcohol-fed, agent alone) was “reduced”, the “ileum Il22 mRNA expression” value (AhR; alcohol-fed, agent alone) was “reduced” and the “ileum Reg3g mRNA expression” value (AhR; alcohol-fed, agent alone) was “reduced”. For the same compound, the “serum ALT” value (AhR; alcohol-fed, agent alone) was “slightly increased”, the “serum AST” value (AhR; alcohol-fed, agent alone) was “slightly increased” and the “effects of LDNPs on serum ALT” value (AhR; [3]) was “blocked”. For the same compound, the “effects of LDNPs on serum AST” value (AhR; [3]) was “blocked” and the “effect of LDNPs on hepatic bacteria load” value (AhR; alcohol-fed, inhibitor co-administered) was “blocked”.

For `O=Cc1c[nH]c2ccccc12` [I3A, indole-3-aldehyde], the “protein expression of tight junction proteins” value (Caco-2 cells; Caco-2, LDNPs 0.2 μg/ml, I3A 0.1 mM) was “increased”, the Cyp1a1 activity (Caco-2 cells; [4]) was “markedly increased” and the “Cyp1a1 mRNA expression” value (Caco-2 cells; [4]) was “markedly increased”.

For `Cc1ccccc1C(=O)N1CCc2cc(-c3nc(NC(=O)Cc4ccc5c(c4)OCO5)sc3C)ccc21` [ML385], the “LDNP-induced Cyp1a1 activity” value (Caco-2 cells) was “not”, the “LDNP-induced Cyp1a1 mRNA expression” value (Caco-2 cells) was “blocked” and the “LDNP-induced Nrf2 mRNA expression” value (Caco-2 cells) was “completely inhibited”. The “LDNP-induced Nrf2 protein expression” value (Caco-2 cells) was “completely inhibited”.
